The text below walks through data of patent US20190008779A1, “GEMCABENE COMPOSITIONS AND METHODS OF USE THEREOF” (GEMPHIRE THERAPEUTICS INC., priority 2017, published 2019).

Like-named read-outs stand apart in the source and are kept apart here.

One series concerns the target T1, HMG-CoA reductase (Homo sapiens, UniProt P04035).
T1 sequence (P04035 1-888): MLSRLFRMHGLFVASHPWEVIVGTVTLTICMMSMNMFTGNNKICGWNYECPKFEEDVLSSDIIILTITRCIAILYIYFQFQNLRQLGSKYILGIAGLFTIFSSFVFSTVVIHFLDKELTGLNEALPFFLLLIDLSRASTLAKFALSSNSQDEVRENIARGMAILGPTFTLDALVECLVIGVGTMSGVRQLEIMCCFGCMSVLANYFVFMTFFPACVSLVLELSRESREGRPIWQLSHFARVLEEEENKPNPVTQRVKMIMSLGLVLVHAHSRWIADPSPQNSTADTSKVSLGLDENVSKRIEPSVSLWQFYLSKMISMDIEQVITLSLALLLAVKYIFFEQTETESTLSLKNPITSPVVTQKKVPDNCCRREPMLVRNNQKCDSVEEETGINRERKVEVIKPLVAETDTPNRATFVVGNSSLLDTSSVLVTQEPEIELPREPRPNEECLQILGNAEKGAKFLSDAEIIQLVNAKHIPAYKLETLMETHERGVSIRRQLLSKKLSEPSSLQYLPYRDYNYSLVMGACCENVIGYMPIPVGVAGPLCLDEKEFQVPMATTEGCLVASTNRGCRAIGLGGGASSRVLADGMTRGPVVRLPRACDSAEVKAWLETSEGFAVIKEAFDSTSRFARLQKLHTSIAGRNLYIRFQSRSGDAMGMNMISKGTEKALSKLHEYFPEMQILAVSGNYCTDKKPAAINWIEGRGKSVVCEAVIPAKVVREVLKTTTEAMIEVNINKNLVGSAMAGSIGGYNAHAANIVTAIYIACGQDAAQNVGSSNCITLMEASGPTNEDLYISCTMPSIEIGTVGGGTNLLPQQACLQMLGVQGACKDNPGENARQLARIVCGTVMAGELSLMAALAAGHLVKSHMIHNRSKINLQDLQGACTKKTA
To be noted: cited from earlier work.

Series [1] in a line: Pharmacokinetic analysis after a single oral dose to male dogs (plasma atorvastatin, metabolites, gemcabene). It counts as in vivo, beagle dogs. As to conditions: administered in the absence of atorvastatin calcium versus with atorvastatin calcium (FIG. 15).
For series [2] the following is noted: in vivo; cited from earlier work.
Series [3] relates to hypercholesterolemic human subjects. To be noted: cited from earlier work.

`CC(C)c1c(C(=O)Nc2ccccc2O)c(-c2ccccc2)c(-c2ccc(F)cc2)n1CCC(O)CC(O)CC(=O)O` (centres unmarked) [2-hydroxy-atorvastatin acid]: the “pharmacological activity (inhibitory activity on HMG-CoA reductase)” value on HMG-CoA reductase is “pharmacologically equipotent to parent atorvastatin”; at HMG-CoA reductase (listed as 2-hydroxy-atrovastatin) it was “active towards HMG-CoA reductase”.

As for `CC(C)c1c(C(=O)Nc2ccccc2)c(-c2ccccc2)c(-c2ccc(F)cc2)n1CC[C@@H]1C[C@@H](O)CC(=O)O1` [atorvastatin lactone], the “pharmacological activity (inhibitory activity on HMG-CoA reductase)” value at HMG-CoA reductase is “pharmacologically inactive”.

In the case of `CC(C)c1c(C(=O)Nc2ccccc2O)c(-c2ccccc2)c(-c2ccc(F)cc2)n1CCC1CC(O)CC(=O)O1` (centres unmarked) [2-hydroxy-atorvastatin lactone], the “pharmacological activity (inhibitory activity on HMG-CoA reductase)” value on HMG-CoA reductase is “pharmacologically inactive”.

With `CC(C)c1c(C(=O)Nc2ccc(O)cc2)c(-c2ccccc2)c(-c2ccc(F)cc2)n1CCC1CC(O)CC(=O)O1` (centres unmarked) [4-hydroxy-atorvastatin lactone], the “pharmacological activity (inhibitory activity on HMG-CoA reductase)” value on HMG-CoA reductase was “pharmacologically inactive”.

For the molecule `CC(C)c1c(C(=O)Nc2ccc(O)cc2)c(-c2ccccc2)c(-c2ccc(F)cc2)n1CC[C@@H](O)C[C@@H](O)CC(=O)O` [4-hydroxy-atorvastatin acid], the results for the “pharmacological activity (inhibitory activity on HMG-CoA reductase)” value at HMG-CoA reductase and on HMG-CoA reductase (listed as 4-hydroxy-atorvastatin) were “pharmacologically equipotent to parent atorvastatin” and “active towards HMG-CoA reductase”, respectively.

`CC(C)(CCCCOCCCCC(C)(C)C(=O)O)C(=O)O` [gemcabene calcium, 6,6′-oxybis(2,2-dimethylhexanoic acid)]: the “pharmacokinetic profile of gemcabene” value in series [1] is “essentially the same”. The “effect on the pharmacokinetics of simvastatin and atorvastatin” value in series [2] was “not to significantly affect”. For the same molecule, the triglycerides entry in series [3] (patients having type IIb hyperlipidemia, certain doses with a statin, versus either alone) is listed as “surprising ability to lower triglycerides”. For the same molecule, the LDL-C levels result in series [3] (patients on a stable dose of statin not able to reach the target LDL-C goal) was “further reduce LDL-C levels”. Moreover, the “plasma levels of LDL cholesterol (LDL-C)” value in series [3] (separate administration with a statin, versus a statin alone) is “significantly reduce”. Besides, the fibrinogen result in series [3] (some doses with a statin, hypercholesterolemic human subjects with elevated fibrinogen levels) is recorded as “lower fibrinogen”. Also, the c-reactive protein entry in series [3] (with a statin, versus statin treatment alone) is “reduce c-reactive protein to an extent greater than the statin treatment alone”.
